Assay results: paper PMC6014988, “Precision therapeutic targeting of human cancer cell motility” (Nature Communications, 2018)

Tested on: 284 kinases and 20 phosphatases
Experiment: KinaseProfiler and PhosphataseProfiler assay platforms
Format: biochemical
Excerpt: There were two initial false positives (for a false positive rate of 0.4%), that were subsequently found to be negative in a dedicated follow up analysis. Specific and important negative findings include MKK4, p38 MAPK (α, β, γ and δ […]
by competing for phospho-acceptor binding.
Kinase assay system #2. The Kinex™ kinase assay system (Kinexus Proteomics Company).
This platform uses recombinant human protein kinases expressed in an insect expression system, thus allowing an avenue for post-translational modification. Also, this platform measures inhibition of ATP binding. This platform putatively measured 200 different kinases, and we […]
tested KBU2046 at 1 and 10 μM. […] There were two […]
important technical issues. First, at 10 μM KBU2046 interfered with the colorimetric-based […]
However, while considering the above factors, this screen was informative for a number of […]
function by competing for ATP binding in the active site.
Kinase assay system #3. KinaseProfiler™ and PhosphataseProfiler™ assay platforms (Millipore). This platform is radiometric-based (considered gold standard). It measures competition with respect to ATP for kinases and substrate protein for phosphatases. Most proteins were expressed via an insect-based system, and it evaluates a panel of 284 kinases and 20 phosphatases. There were two initial false positives, for a false positive rate of 0.7%, but both […]

For O=C1c2ccccc2OCC1c1ccc(F)cc1 (racemic) [KBU2046, (±)-3(4-fluorophenyl)chroman-4-one], the “inhibition of phosphatase activity” value (20 phosphatases) was “No evidence supports inhibition” and the “inhibition of kinase activity” value (radiometric, 284 kinases) was “no evidence that KBU2046 inhibits”.
